Measurements: US12522582B2 (Gilead Sciences, Inc., priority 2022, dated 2026)
Like-named read-outs stand apart in the source and are kept apart here.

Tested on: HSV-2 virus (MS strain)
Assay: HSV-2 Cellomics Assay (immunofluorescence of HSV protein gD in infected ARPE-19 cells)
Settings: Human alphaherpesvirus 2, ARPE-19, 16 h
[1] = read-out: EC50-HSV2-10% Human Serum

Procedure: Compounds were tested for their ability to inhibit HSV-2 replication by monitoring the expression of the HSV protein gD using a high-throughput immunofluorescence-based assay. 10-dose, 3-fold serial dilutions of compounds were prepared at starting concentrations of 0.2 or 2 mM in 100% DMSO. […] The final starting concentration in the assay was either 1 or 10 μM. DMSO (no compound) and pritelivir were included on each microplate as negative and positive controls, respectively.
Prior to confluence, cells were transferred to a centrifuge tube and spun for 5 minutes at 1000 rpm. Cells were resuspended in assay medium (DMEM/F-12 Glutamax, 2% FBS, 1% Penicillin-Streptomycin) and counted. Cell density was adjusted to 150,000 cells/ml and infected with HSV-2 virus (MS strain, ATCC cat #VR-540) at a MOI of 0.06 in a 50 ml conical tube for 1 hour under constant rocking. Cells were then spun for 5 minutes at 1000 rpm and the media replaced with assay medium containing either 2% FBS or 10% human serum (EMD Millipore cat #S1-100 ML). 50 μl of the infection suspension were added into microplate wells that were pre-spotted with compounds (7,500 cells per well). Plates were incubated for 16 hours at 37° C.
After a 30-minute incubation at room temperature, plates were washed 4 times with 100 μl/well of PBS using a Biotek plate washer. […] Plates were washed 4 times again and 50 μl of DPBS were added to all wells prior to sealing the plates with a black adhesive seal. Fluorescence was measured on a Cellomics plate reader.
Data analysis was carried out using the Thermo Scientific HCS Studio software. Briefly, cells were identified using the DAPI nuclear stain and thresholds were set to filter cells out based on shape and size. A second threshold based on green fluorescence intensity (detection of HSV-2 gD) was set to identify HSV-2 infected cells. Data was reported as the average fluorescence intensity of HSV-2 infected cells.

Row | Compound | EC50 [1] [nM] | EC50 (read-out: EC50-HSV2-FBS) [nM]
1 | COc1cc2c(cc1S(N)(=O)=O)N(C(=O)C1Cc3ccc(-c4ccccn4)cc3C1)CC2 (stereo not shown) [Example 111, 5-Methoxy-1-[5-(2-pyridyl)indane-2-carbonyl]indoline-6-sulfonamide] | ≥ 25000 | 1740
2 | C[C@@H]1c2ccc(-c3ccccn3)cc2C[C@H]1C(=O)N1CCc2cc(F)c(S(N)(=O)=O)cc21 [Example 98, 5-fluoro-1-((1S,2R)-1-methyl-5-(pyridin-2-yl)-2,3-dihydro-1H-indene-2-carbonyl)indoline-6-sulfonamide] | 6650 | 1360
3 | C[S@@](=N)(=O)c1cc2c(cc1F)CCN2C(=O)[C@@H]1Cc2ccc(-c3cc(F)ccc3F)cc2C1 [Example 52] | 2000 | 340
4 | CC1(C)CN(C(=O)C2Cc3ccc(-c4ccccn4)cc3C2)c2cc(S(N)(=O)=O)ccc21 (stereo not shown) [Example 109] |  | 390
5 | C[C@H]1c2ccc(-c3ccccn3)cc2C[C@@H]1C(=O)N1C[C@H](C(F)(F)F)c2cc(F)c(S(N)(=O)=O)cc21 [Example 139, (R)-5-fluoro-1-((1R,2S)-1-methyl-5-(pyridin-2-yl)-2,3-dihydro-1H-indene-2-carbonyl)-3-(trifluoromethyl)indoline-6-sulfonamide] | 1710 | 74.2
6 | NS(=O)(=O)c1ccc2c(c1)N(C(=O)C1Cc3ccc(-c4ccccn4)c(F)c3C1)CC2 (stereo not shown) [Example 10] |  | 537
7 | CC1CN(C(=O)[C@H]2Cc3cc(-c4ccccn4)ccc3[C@@H]2C)c2cc(S(N)(=O)=O)c(F)cc21 (mixture of isomers) [Example 103, 5-fluoro-3-methyl-1-((1R,2S)-1-methyl-5-(pyridin-2-yl)-2,3-dihydro-1H-indene-2-carbonyl) indoline-6-sulfonamide] | 221 | 36
8 | NS(=O)(=O)c1ccc2c(c1)N(C(=O)C1Cc3cc(Cl)c(-c4ccccn4)cc3C1)CC2 (stereo not shown) [Example 12] |  | 5040
9 | C[C@H]1Cc2cc(Cl)c(S(N)(=O)=O)cc2N1C(=O)[C@@H]1Cc2ccc(-c3ccccn3)cc2C1 [Example 59, (S)-5-chloro-2-methyl-1-((R)-5-(pyridin-2-yl)-2,3-dihydro-1H-indene-2-carbonyl)indoline-6-sulfonamide] | ≥ 10000 | 385
10 | CS(=N)(=O)c1cc2c(cc1F)CCN2C(=O)[C@@H]1Cc2ccc(-c3cc(F)ccc3F)cc2C1 (stereo partly drawn) [Example 51, (1-((R)-5-(2,5-difluorophenyl)-2,3-dihydro-1H-indene-2-carbonyl)-5-fluoroindolin-6-yl)(imino)(methyl)-λ^6-sulfanone] | 239 | 53
11 | CC1CN(C(=O)[C@H]2Cc3cc(-c4ccccn4)ccc3[C@@H]2C)c2cc(S(N)(=O)=O)ccc21 (stereo partly drawn) [Example 102, 3-methyl-1-((1R,2S)-1-methyl-5-(pyridin-2-yl)-2,3-dihydro-1H-indene-2-carbonyl) indoline-6-sulfonamide] | 905 | 160
12 | C[C@@H]1CN(C(=O)[C@H]2Cc3cc(-c4ccccn4)ccc3[C@@H]2C)c2cc(S(N)(=O)=O)c(F)cc21 (single isomer, unassigned) [Example 105] | 251 | 45
13 | NS(=O)(=O)c1ccc2c(c1)N(C(=O)[C@H]1Cc3ccc(-c4ccccc4F)cc3C1)CC2 [Example 82, (S)-1-(5-(2-fluorophenyl)-2,3-dihydro-1H-indene-2-carbonyl)indoline-6-sulfonamide] |  | 8040
14 | CC1c2cc(-c3ccccn3)ccc2CC1C(=O)N1CCc2ccc(S(N)(=O)=O)cc21 (stereo not shown) [Example 95, 1-(1-methyl-6-(pyridin-2-yl)-2,3-dihydro-1H-indene-2-carbonyl) indoline-6-sulfonamide] | ≥ 25000 | 2850
15 | NS(=O)(=O)c1ccc2c(c1)N(C(=O)[C@@H]1Cc3ccc(-c4ccccc4F)cc3C1)CC2 [Example 83, (R)-1-(5-(2-fluorophenyl)-2,3-dihydro-1H-indene-2-carbonyl)indoline-6-sulfonamide] | ≥ 25000 | 177
16 | NS(=O)(=O)c1ccc2c(c1)N(C(=O)C1Cc3ccc(-n4cncn4)cc3C1)CC2 (stereo not shown) [Example 79, 1-(5-(1H-1,2,4-triazol-1-yl)-2,3-dihydro-1H-indene-2-carbonyl)indoline-6-sulfonamide] |  | 2060

Row | Compound | EC50 [1] [nM] | EC50 (read-out: EC50-HSV2-FBS) [nM]
17 | NS(=O)(=O)c1cc2c(cc1Br)CCN2C(=O)C1Cc2ccc(-c3ccccn3)cc2C1 (stereo not shown) [Example 110, 5-Bromo-1-(5-(pyridin-2-yl)-2,3-dihydro-1H-indene-2-carbonyl)indoline-6-sulfonamide] | ≥ 25000 | 26
18 | NS(=O)(=O)c1ccc2c(c1F)N(C(=O)C1Cc3ccc(-c4ccccn4)cc3C1)CC2 (stereo not shown) [Example 4] | ≥ 25000 | 284
19 | NS(=O)(=O)c1ccc2c(c1)N(C(=O)C1Cc3ccc(-c4cncc(F)n4)cc3C1)CC2 (stereo not shown) [Example 18] |  | 180
20 | CCC1Cc2cc(F)c(S(=N)(=O)O)cc2N1C(=O)[C@@H]1Cc2ccc(-c3ccccn3)cc2C1 (mixture of isomers) [Example 112] | 579 | 81
21 | Cc1nc(-c2ccc3c(c2)CC(C(=O)N2CCc4ccc(S(N)(=O)=O)cc42)C3)cs1 (stereo not shown) [Example 25] | ≥ 25000 | 32
22 | NS(=O)(=O)c1cc(Cl)c2c(c1)N(C(=O)C1Cc3ccc(-c4ccccn4)cc3C1)CC2 (stereo not shown) [Example 7] | ≥ 25000 | 62
23 | C[C@@H]1c2cc(F)c(S(N)(=O)=O)cc2N(C(=O)[C@@H]2Cc3ccc(-c4ccccn4)cc3C2)[C@H]1C [Example 47, (2S,3R)-5-fluoro-2,3-dimethyl-1-((R)-5-(pyridin-2-yl)-2,3-dihydro-1H-indene-2-carbonyl)indoline-6-sulfonamide] | 3660 | 423
24 | C[C@H]1CN(C(=O)[C@H]2Cc3cc(-c4ccccn4)c(F)cc3O2)c2cc(S(N)(=O)=O)c(F)cc21 [Example 137, (R)-5-fluoro-1-((R)-6-fluoro-5-(pyridin-2-yl)-2,3-dihydrobenzofuran-2-carbonyl)-3-methylindoline-6-sulfonamide] | 538 | 129
25 | CC1c2ccc(-c3ccccn3)cc2CC1C(=O)N1CCc2ccc(S(N)(=O)=O)cc21 (stereo not shown) [Example 92] | 238 | 28
26 | NS(=O)(=O)c1ccc2c(c1)N(C(=O)C1Cc3ccc(-c4ccccn4)c(Cl)c3C1)CC2 (stereo not shown) [Example 11] |  | 7660
27 | Cc1c(S(N)(=O)=O)ccc2c1N(C(=O)C1Cc3ccc(-c4ccccn4)cc3C1)CC2 (stereo not shown) [Example 1] |  | 721
28 | N#Cc1nc(-c2ccc3c(c2)CC(C(=O)N2CCc4ccc(S(N)(=O)=O)cc42)C3)cs1 (stereo not shown) [Example 27] |  | 383
29 | CC1CN(C(=O)[C@@H]2Cc3cc(-c4ccccn4)ccc3[C@H]2C)c2cc(S(N)(=O)=O)ccc21 (stereo partly drawn) [Example 101, 3-methyl-1-((1S,2R)-1-methyl-5-(pyridin-2-yl)-2,3-dihydro-1H-indene-2-carbonyl)indoline-6-sulfonamide] |  | 6760
30 | NS(=O)(=O)c1ccc2c(c1)N(C(=O)C1Cc3ccc(-c4ccccn4)cc3C1)CC2 (stereo not shown) [Example 71, 1-(5-(pyridin-2-yl)-2,3-dihydro-1H-indene-2-carbonyl) indoline-6-sulfonamide] | ≥ 25000 | 30
31 | CS(=N)(=O)c1ccc2c(c1)N(C(=O)C1Cc3ccc(-c4ccccn4)cc3C1)CC2 (stereo not shown) [Example 29, imino(methyl)(1-(5-(pyridin-2-yl)-2,3-dihydro-1H-indene-2-carbonyl)indolin-6-yl)-λ^6-sulfanone] | 3240 | 193
